The source of these data is patent US8183271B2, “Tetrazole derivatives and their use for the treatment of cardiovascular diseases” (Bayer Intellectual Property GmbH, priority 2005, dated 2012).

For test [1], the target named is T1, Heme-free sGC (recombinant soluble guanylate cyclase) (Rattus norvegicus, UniProt P20595).
T1 construct: made in house
T1 sequence (P20595 1-619): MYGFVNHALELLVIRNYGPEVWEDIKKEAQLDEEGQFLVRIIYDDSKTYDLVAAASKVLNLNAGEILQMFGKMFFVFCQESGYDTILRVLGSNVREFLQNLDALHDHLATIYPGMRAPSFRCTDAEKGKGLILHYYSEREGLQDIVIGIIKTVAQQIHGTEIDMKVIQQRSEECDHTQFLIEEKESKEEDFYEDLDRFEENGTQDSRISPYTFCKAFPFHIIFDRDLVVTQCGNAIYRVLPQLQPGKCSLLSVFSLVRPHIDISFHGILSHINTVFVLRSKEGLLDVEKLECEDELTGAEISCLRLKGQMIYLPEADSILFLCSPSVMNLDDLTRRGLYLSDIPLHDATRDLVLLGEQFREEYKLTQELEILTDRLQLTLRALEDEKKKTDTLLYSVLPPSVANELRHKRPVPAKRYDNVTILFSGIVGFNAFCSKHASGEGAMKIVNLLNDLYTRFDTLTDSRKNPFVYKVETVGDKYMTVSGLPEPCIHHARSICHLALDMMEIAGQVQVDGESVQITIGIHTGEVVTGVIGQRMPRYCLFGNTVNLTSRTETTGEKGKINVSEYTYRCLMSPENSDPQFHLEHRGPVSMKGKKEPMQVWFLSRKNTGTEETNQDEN
T1 sequence (P19686 1-690 partner): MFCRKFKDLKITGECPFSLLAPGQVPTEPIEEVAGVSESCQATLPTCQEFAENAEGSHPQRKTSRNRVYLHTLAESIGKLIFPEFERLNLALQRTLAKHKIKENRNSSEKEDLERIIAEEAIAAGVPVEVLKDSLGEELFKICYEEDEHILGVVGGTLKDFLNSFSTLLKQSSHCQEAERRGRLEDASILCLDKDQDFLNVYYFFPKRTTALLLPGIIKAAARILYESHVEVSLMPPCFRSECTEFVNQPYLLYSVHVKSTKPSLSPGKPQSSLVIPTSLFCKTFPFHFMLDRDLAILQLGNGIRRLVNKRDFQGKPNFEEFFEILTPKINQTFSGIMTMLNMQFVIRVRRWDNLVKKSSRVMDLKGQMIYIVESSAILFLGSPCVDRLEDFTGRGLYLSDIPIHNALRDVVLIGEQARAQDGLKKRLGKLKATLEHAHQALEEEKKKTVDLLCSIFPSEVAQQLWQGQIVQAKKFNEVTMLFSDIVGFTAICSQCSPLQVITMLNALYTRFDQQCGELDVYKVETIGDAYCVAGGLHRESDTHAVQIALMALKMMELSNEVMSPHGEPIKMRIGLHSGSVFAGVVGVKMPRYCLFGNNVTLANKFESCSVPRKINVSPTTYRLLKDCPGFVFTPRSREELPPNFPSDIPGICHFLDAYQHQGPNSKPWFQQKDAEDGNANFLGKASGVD
In words: Stimulation of recombinant soluble guanylate cyclase (sGC) in vitro, heme-free enzyme. The class given is biochemical. How it is done: Investigations on the stimulation of recombinant soluble guanylate cyclase (sGC) by the compounds according to the invention with and without sodium nitroprusside, and with and without the heme-dependent sGC inhibitor 1H-1,2,4-oxadiazole-(4,3a)-quinoxalin-1-one (ODQ) are carried out by the method described in detail in the following reference: M. Hoenicka, E. M. Becker, H. Apeler, T. Sirichoke, H. Schroeder, R. Gerzer and J.-P. Stasch, “Purified soluble guanylyl cyclase expressed in a baculovirus/Sf9 system: Stimulation by YC-1, nitric oxide, and […]”, J. Mol. Med. 77 (1999), 14-23. The heme-free guanylate cyclase is obtained by adding Tween 20 to the sample buffer (0.5% in the final concentration).
The activation of sGC by a test substance is reported as n-fold stimulation of the basal activity.

For test [2], the system named is spontaneously hypertensive rats (SH rats). In words: Radiotelemetric measurement of blood pressure and heart rate on conscious SH rats. To be noted: oral administration of 10 mg/kg. Type of test: in vivo. How it is done: A commercially available telemetry system from Data Sciences International DSI, USA, is employed for the measurements on conscious SH rats described below.
The system consists of 3 main components: (1) implantable transmitter, (2) receiver which is linked via a multiplexer to a (3) data acquisition computer. The telemetry system makes it possible to record continuously the blood pressure and heart rate on conscious animals in their usual habitat.
The investigations are carried out on adult female spontaneously hypertensive rats (SH rats) with a body weight of >200 g. After transmitter implantation, the experimental animals are housed singly in type 3 Makrolon cages. They have free access to standard feed and water. […]
In the standard procedure, the following are measured for 10-second periods in each case: (1) systolic blood pressure (SBP), (2) diastolic blood pressure (DBP), (3) mean arterial pressure (MAP) and (4) heart rate (HR).
Measurement acquisition is repeated under computer control at 5-minute intervals. The source data obtained as absolute value are corrected in the diagram with the currently measured barometric pressure and stored in individual data. […]
The test substances are administered at 9.00 h on the day of the experiment. Following the administration, the parameters described above are measured over 24 hours. […]

In the case of `CC(C)(C)c1ccc(COc2ccccc2/C=C/C(CCc2ccc(-c3nnn[nH]3)cc2)Cc2ccc(C(=O)O)cc2)cc1` (single isomer, unassigned) [Example 6, 4-((3E)-4-{2-[(4-tert-Butylbenzyl)oxy]phenyl}-2-{2-[4-(1H-tetrazol-5-yl)phenyl]ethyl}but-3-en-1-yl)benzoic acid], the “Stimulation (n-fold) Heme-free sGC Basal” value in test [1] (0.001 μM Example 6) came to 3.2 n-fold; in test [1] (0.01 μM Example 6) it was 20.4 n-fold; in test [1] (0.1 μM Example 6), 90.9 n-fold; in test [1] (1 μM Example 6), 143.8 n-fold; in test [1] (10 μM Example 6), 145.9 n-fold. In addition, the “Stimulation (n-fold) Heme-free sGC +10 μM ODQ” value in test [1] (0.001 μM Example 6 + 10 μM ODQ) came to 3.0 n-fold; in test [1] (0.01 μM Example 6 + 10 μM ODQ), 18.9 n-fold; in test [1] (0.1 μM Example 6 + 10 μM ODQ), 89.7 n-fold; in test [1] (1 μM Example 6 + 10 μM ODQ), 143.8 n-fold; in test [1] (10 μM Example 6 + 10 μM ODQ), 149.3 n-fold. Moreover, in test [2], the “Period of blood pressure reduction” value was 11 h. Moreover, the “Reduction in blood pressure” value in test [2] is “marked reduction in blood pressure”.
